According to patent US20260265316A1, “IMMUNOTHERAPEUTIC METHODS, COMPOUNDS, AND COMPOSITIONS FOR TREATING OR PREVENTING CELIAC DISEASE” (DBV Technologies, priority 2023, published 2026):

Tests used:
[1] = Method: Freeze-dried aliquots of the three gliadin polypeptide constructs Cv6, Av6, and 4K, as well as the four building blocks BB1, BB2a, BB3a, and BB4a were reconstituted in pure water, loaded on a PET-Ti backing film and dried in an oven (at ~30° C.). Immediately after drying, dry deposits were reconstituted at five different molarities (approximately 1.8, 0.91, 0.45, 0.091 or 0.045 mM) by pipetting up and down with either pure water (A), PBS 1× (B), or artificial perspiration (C). The concentration in soluble material was measured by HPLC at 215 nm from the solutions recovered from PET-Ti backing films. Data are median+interquartile range of the different molarities tested. Data are expressed as the percentage of soluble material recovered, based on the expected concentration (all values above 100% were set to 100).
Immediately after drying, dry deposits were reconstituted at five different concentrations (20, 10, 5, 1 and 0.5 mg/mL) by pipetting up and down with either pure water (A), PBS 1× (B), or artificial perspiration (C). The concentration in soluble material was measured by HPLC at 215 nm from the solutions recovered from PET-Ti backing films. Data are presented as median+interquartile range of the different molarities tested. Data are expressed as the percentage of soluble material recovered, based on the expected concentration (all values above 100% were set to 100). (D) As an illustration, photographs of the reconstitution of dry deposits with pure water are shown and annotated.
Immediately after drying, deposits were reconstituted by pipetting up and down with each of pure water, PBS 1× at pH 7.0, and artificial perspiration at pH 4.5, each at five different molarities (approximately 1.8, 0.91, 0.45, 0.091, and 0.045 mM). The concentration in soluble material was measured by HPLC at 215 nm.
Immediately after drying, patch deposits were reconstituted by pipetting up and down with each of pure water, PBS 1× at pH 7.0, and artificial perspiration at pH 4.5, at five different concentrations (20, 10, 5, 1, and 0.5 mg/mL). The concentration in soluble material was measured by HPLC at 215 nm.

[2] = system: circulating gluten-specific CD4+ T cells in whole blood of HLA-DQ2+ CeD patients; test: Whole blood IL-2 cytokine release assay, HLA-DQ2+ CeD participants; format: cell-based, human; conditions: HLA-DQ2+ donors; whole blood, 24 hours
Description: FIGS. 10A-10B are graphs depicting the evaluation of the ability of various molarities of three gliadin polypeptides (Cv6, Av6, and 4K), two peptide mixes containing either the four individual building blocks BB1, BB2a, BB3a and BB4a (BB1-4a) or two Nexvax2 peptides (Nex01/02), and six individual building blocks or peptides (BB1, BB2a, BB3a, BB4a, Nex01, and Nex02) to restimulate gluten-specific T cell collected from HLA-DQ2+ CeD patients using a whole blood IL-2 release assay. The whole blood cytokine release assay was performed in six HLA-DQ2+ participants with biopsy-confirmed celiac disease. Whole blood was stimulated with the three gliadin polypeptide constructs Cv6, Av6, and 4K at 10, 2.5, and 0.5 μM final molarities, as indicated. Alternatively, whole blood was stimulated with a mix of peptides containing either the four building blocks BB1, BB2a, BB3a, and BB4a (BB1-4a) or Nex01 and Nex 02 (Nex01/02) at 10, 2.5, and 0.5 μM final molarities. Building blocks (BB1, BB2a, BB3a, and BB4a), Nex01, and Nex02 were also tested as individual peptides, at a single concentration of 10 μM. After 24 hours of incubation, the concentration of IL-2 was quantified from plasma using an MSD IL-2 S-plex ELISA. Data are expressed in femtogram/mL of plasma (A), or as fold change from the negative control (PBS 1×) (B). Symbols represent individual participants (patient ID); bars represent median+interquartile range of individual values.
(§1) The overarching objective of this assay was to validate that the polypeptide constructs (Cv6, Av6, and 4K) can be recognized and processed by human APCs, and they can then promote the activation of gluten-specific effector/memory CD4^+ T cells in CeD patients. A Cytokine Release Assay (CRA) was used (previously described in the literature: Anderson et al., Clinical & Experimental Immunology, 2021 June; 204(3): 321-334; and in Hardy et al., Frontiers in Immunology, 2021, Vol. 12, Article 661662, the entire contents of each of which are incorporated by reference herein). This assay quantifies IL-2 produced by circulating gluten-specific CD4^+ T cells present in the blood of CeD patients upon in vitro stimulation with gluten-derived antigens. Due to the extremely high sensitivity of this CRA, no oral exposure to gluten was required prior to blood sampling.
(§2) Informed consent was obtained from all subjects prior to blood collection.
(§3) Unfractionated blood (225 μL per well of a 96-well plate) was then rapidly restimulated for 24 hours with each of three of the polypeptide constructs provided herein (SEQ ID NO:23 wherein X is C [Cv6, i.e., SEQ ID NO:49], SEQ ID NO:23 wherein X is A [Av6, i.e., SEQ ID NO:50], and SEQ ID NO:46 [4K]) and with each of four individual building blocks (SEQ ID NO:15 wherein Z is E [BB1], SEQ ID NO:16 wherein Z is E [BB2a], SEQ ID NO:20 wherein Z is E [BB3a], and SEQ ID NO:18 wherein Z is E [BB4a]). The concentrations of the polypeptide constructs ranged from 0.5 to 10 micromolar, and the concentration for each individual building block was 10 micromolar. […] These two peptides comprise an N-terminal pyroglutamate and a C-terminal amide. Nex01 and Nex02 were the two gliadin peptides used in the Nexvax2 immunotherapeutic vaccine that was intended to restore immune tolerance to gluten in HLA-DQ2.5+ CeD patients. A positive control consisted of blood cells stimulated with phytohemagglutinin (PHA) (10 μg/mL) which activates all T cells regardless of their antigen specificity (i.e., a polyclonal activator). Negative controls consisted of cells treated with buffer only (PBS 1×).
(§4) After incubation for 24 hours at 37° C. and 5% CO2, plasma was separated from whole blood by centrifugation. Plasma was collected from each well and replicates (n=6 replicates per test) pooled. All plasma samples were frozen at −80° C. until analysis. Single plasma aliquots (100 μL) were thawed and analyzed in duplicate using MSD IL-2 S-plex according to the manufacturer's instructions.

[3] = system: circulating gluten-specific CD4+ T cells in whole blood of HLA-DQ8+ CeD patients; test: Whole blood IL-2 cytokine release assay, HLA-DQ8+ CeD participants; format: cell-based, human; conditions: HLA-DQ8+ donors; whole blood, 24 hours
Description: FIGS. 11A-11B are graphs depicting the evaluation of the ability of various molarities of three gliadin polypeptides (Cv6, Av6, and 4K), two peptide mixes containing either the four individual building blocks BB1, BB2a, BB3a and BB4a (BB1-4a) or two Nexvax2 peptides (Nex01/02), and six individual building blocks or peptides (BB1, BB2a, BB3a, BB4a, Nex01, and Nex02) to restimulate gluten-specific T cell collected from HLA-DQ8+ CeD patients using a whole blood IL-2 release assay. The whole blood cytokine release assay was performed in four HLA-DQ8+ participants with biopsy-confirmed celiac disease as described in FIG. 10. Data are expressed in femtogram/mL of plasma (A), or as fold change from the negative control (PBS 1×) (B). Symbols represent individual participants (patient ID); bars represent the median+interquartile range of individual values.
as §1, §2, §3, §4

Row | Substance | median percentage of soluble material recovered from the patch backing film [1] | IL-2 response (in words) [2] | IL-2 response (in words) [3]
1 | Ac-QLQPFPQPELPYPQPELPYPQPELPYPQPQP-NH2 [BB1] | 93-100% | potent IL-2 responses | no or low responses
2 | H-PQQPFPQPEQPFPWQPQ-NH2 [BB3a] | 93-100% | potent IL-2 responses | no or low responses
